These results are taken from PubChem BioAssay (NCI).

Values joined by “and” are separate entries in the source; they are usually repeats but may differ in a detail not shown here. Equal values may be shown once.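 Five concentrations, 48 hours, 96-well plates. GI50 is the concentration that inhibits growth by half. Definition used: TGI = concentration required for complete inhibition of growth.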 Some results are limits rather than exact numbers.

Test systems include ACHN renal; DU-145 prostate; HCT-15 colon; LOX IMVI melanoma; M14 melanoma; MOLT-4 leukemia; NCI-H23 lung; SF-295 CNS; SNB-19 CNS; UACC-257 melanoma.
Common to all, as to assay: NCI tumour cell line growth inhibition, 48 h

Take `C[C@H]1[C@H](C)CC[C@]2(C(=O)OC3OC(CO)C(O)C(O)C3O)CC[C@]3(C)C(=CC[C@@H]4[C@@]5(C)C[C@H]6OC(=O)c7cc(O)c(O)c(O)c7-c7c(cc(O)c(O)c7O)C(=O)O[C@@H]6C(CO)(CO)[C@@H]5CC[C@]43C)[C@H]12` (stereo partly specified): the TGI was above 100 µM in the test with ACHN renal; above 100 µM in the test with DU-145 prostate; above 100 µM in the test on HCT-15 colon; 34.5 µM with LOX IMVI melanoma; above 100 µM with M14 melanoma; above 74.4 µM in the test with MOLT-4 leukemia. Further, the TGI with NCI-H23 lung, in the test with SF-295 CNS, in the test with SNB-19 CNS and with UACC-257 melanoma was above 100 µM throughout.

For `Cc1cc(NS(=O)(=O)c2ccc(NC(NC(=O)C(C(F)(F)F)C(F)(F)F)(C(F)(F)F)C(F)(F)F)cc2)no1`, the TGI in the test on ACHN renal, with DU-145 prostate, in the test on HCT-15 colon, with LOX IMVI melanoma, in the test on M14 melanoma and in the test with MOLT-4 leukemia was above 100 µM in each case. Moreover, the TGI in the test with NCI-H23 lung, with SF-295 CNS, in the test on SNB-19 CNS and in the test with UACC-257 melanoma was above 100 µM throughout.

`CN1CCN(C2=C(Cl)C3(OCCS3)C(F)(F)C2(F)F)CC1` (stereo unspecified): the TGI in the test with ACHN renal, with DU-145 prostate, in the test on HCT-15 colon, in the test on LOX IMVI melanoma, in the test on M14 melanoma and in the test with MOLT-4 leukemia was above 100 µM in each case. Moreover, the TGI in the test with NCI-H23 lung, in the test with SF-295 CNS, in the test with SNB-19 CNS and in the test on UACC-257 melanoma was above 100 µM in each case.

`O=c1c2ccccc2sc2ccccc12`: the TGI in the test with ACHN renal, with DU-145 prostate, in the test with HCT-15 colon, in the test on LOX IMVI melanoma, with M14 melanoma and in the test on MOLT-4 leukemia was above 100 µM each time. Also, the TGI with NCI-H23 lung, in the test on SF-295 CNS, in the test on SNB-19 CNS and in the test with UACC-257 melanoma was above 100 µM each time.

`CCN(CC)CCO/N=C1\CC[C@H]2[C@@H]3CCc4cc(OC)ccc4[C@H]3CC[C@]12C`: the TGI in the test on ACHN renal was determined as 13.2 µM; in the test with DU-145 prostate, 16.7 µM; with HCT-15 colon, 1.94 µM; with LOX IMVI melanoma it was 2.04 µM; in the test with M14 melanoma it was 1.82 µM; in the test with MOLT-4 leukemia, 3.72 µM. Besides, the TGI came to 18.6 µM with NCI-H23 lung, 3.78 µM in the test with SF-295 CNS, 25 µM in the test with SNB-19 CNS and 2.54 µM with UACC-257 melanoma.

With `O=S1(=O)c2cnccc2NC(=NCc2ccccc2)N1c1ccccc1`, the TGI with ACHN renal, with DU-145 prostate, with HCT-15 colon, with LOX IMVI melanoma, in the test on M14 melanoma and in the test with MOLT-4 leukemia was above 100 µM in each case. In addition, the TGI with NCI-H23 lung, in the test on SF-295 CNS, in the test with SNB-19 CNS and in the test on UACC-257 melanoma was above 100 µM throughout.

Turning to `CC1=NNC(=O)C1C1CC(c2c[nH]c3ccccc23)=NN=C1Cl` (stereo unspecified), the TGI with ACHN renal was above 100 µM; in the test on DU-145 prostate, above 100 µM; in the test with HCT-15 colon, above 100 µM; with LOX IMVI melanoma it was above 100 µM; with M14 melanoma, above 100 µM; in the test on MOLT-4 leukemia, 75.8 µM. Besides, the TGI with NCI-H23 lung, in the test on SF-295 CNS, in the test with SNB-19 CNS and in the test with UACC-257 melanoma was above 100 µM in each case.

Turning to `COC(=O)[C@H](Cc1ccccc1)NC(=O)N(CCC#N)CCN(C(=O)N[C@@H](Cc1ccccc1)C(=O)OC)c1ccccc1`, the TGI in the test with ACHN renal was 33.9 µM; in the test on DU-145 prostate it was 74.5 µM; in the test on HCT-15 colon, above 100 µM; with LOX IMVI melanoma, 41.3 µM; with M14 melanoma, 55.1 µM; in the test with MOLT-4 leukemia it was 41.3 µM. For the same compound, the TGI in the test with NCI-H23 lung was 93.6 µM; in the test with SF-295 CNS, above 100 µM; with SNB-19 CNS, above 100 µM; in the test on UACC-257 melanoma, 37.5 µM.

Turning to `CN(C)c1cccc2c1C(=O)C=CC21c2ccc(N(C)C)c3c(N(C)C)ccc(c23)C(c2ccccc2)C1c1ccccc1` (stereo unspecified), the TGI was 26.6 µM with ACHN renal; above 100 µM in the test with DU-145 prostate; 66.8 µM in the test on HCT-15 colon; 33.7 µM in the test on LOX IMVI melanoma; 31.1 µM with M14 melanoma; 6.82 µM in the test with MOLT-4 leukemia. The TGI worked out at 75.3 µM in the test on NCI-H23 lung, 32.7 µM in the test with SF-295 CNS, 44.4 µM with SNB-19 CNS and 27.2 µM in the test on UACC-257 melanoma.

For `CCOC(=O)C1CCC(=O)N1C(=O)c1ccccc1Cl` (stereo unspecified), the TGI in the test on ACHN renal, in the test on DU-145 prostate, with HCT-15 colon, with LOX IMVI melanoma, in the test with M14 melanoma and with MOLT-4 leukemia was above 100 µM in each case. The TGI in the test with NCI-H23 lung, in the test on SF-295 CNS, in the test with SNB-19 CNS and with UACC-257 melanoma was above 100 µM throughout.

With `C=CCN1C(=O)/C(=C/c2ccc(C)cc2)N=C1SC1OC(COC(C)=O)C(OC(C)=O)C(OC(C)=O)C1OC(C)=O` (stereo unspecified), the GI50 with ACHN renal is > 27.6 µM and 67.3 µM; in the test on HCT-15 colon, > 100 µM and 29.7 µM; with LOX IMVI melanoma, > 100 µM and 31.7 µM; in the test on MOLT-4 leukemia it was > 59.9 µM and 14.6 µM; with NCI-H23 lung, > 100 µM and 27.1 µM; in the test with UACC-257 melanoma, > 73 µM and 32.9 µM. Also, the TGI in the test with ACHN renal, in the test with DU-145 prostate, with HCT-15 colon, in the test on LOX IMVI melanoma, with M14 melanoma and in the test on MOLT-4 leukemia was above 100 µM each time. The TGI in the test on NCI-H23 lung, with SF-295 CNS, in the test with SNB-19 CNS and with UACC-257 melanoma was above 100 µM throughout.

As to `CCNc1ncnc2sc(SCc3ccccc3)nc12`, the TGI in the test with ACHN renal, in the test on DU-145 prostate, with HCT-15 colon, with LOX IMVI melanoma, in the test with M14 melanoma and with MOLT-4 leukemia was above 100 µM throughout. For the same compound, the TGI with NCI-H23 lung, with SF-295 CNS, with SNB-19 CNS and in the test with UACC-257 melanoma was above 100 µM throughout.

Consider `COc1nc2c(N3CCCC3)nc(N3CCNCC3)nc2nc1NCc1ccccc1`, for which the TGI came out at 7.01 µM with ACHN renal; 12.3 µM with DU-145 prostate; 3.82 µM with HCT-15 colon; 2.9 µM in the test with LOX IMVI melanoma; 3.03 µM with M14 melanoma; 4.65 µM with MOLT-4 leukemia. Moreover, the TGI in the test on NCI-H23 lung was 5.88 µM; in the test on SF-295 CNS, 3.35 µM; with SNB-19 CNS, 4.19 µM; in the test on UACC-257 melanoma, 3.35 µM.
